Experimental data reported in PubChem BioAssay (NCI).
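Growth conditions: 96-well plates. Treatment: test compound, 48 hours, 5 concentrations. Analysis: linear interpolation between bracketing concentrations; unreached endpoints set to highest concentration. GI50 is the concentration that inhibits growth by half. TGI denotes the concentration required for complete inhibition of growth.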

Assays:
Assay in all cases: DTP human tumour cell line panel, 48 h
[1] = tested on: 786-0 renal
[2] = tested on: A498 renal
[3] = tested on: A549 NSCLC
[4] = tested on: ACHN renal
[5] = tested on: BT-549 breast
[6] = tested on: CAKI-1 renal
[7] = tested on: CCRF-CEM leukemia
[8] = tested on: COLO 205 colon
[9] = tested on: DU-145 prostate
[10] = tested on: EKVX NSCLC
[11] = tested on: HCC-2998 colon
[12] = tested on: HCT-116 colon
[13] = tested on: HCT-15 colon
[14] = tested on: HL-60(TB) leukemia
[15] = tested on: HOP-62 NSCLC
[16] = tested on: HOP-92 NSCLC
[17] = tested on: HS 578T breast
[18] = tested on: HT29 colon
[19] = tested on: IGROV1 ovarian
[20] = tested on: KM12 colon
[21] = tested on: LOX IMVI melanoma
[22] = tested on: M14 melanoma
[23] = tested on: MALME-3M melanoma
[24] = tested on: MCF7 breast
[25] = tested on: MDA-MB-231 breast
[26] = tested on: MDA-MB-435
[27] = tested on: MDA-MB-468 breast
[28] = tested on: MOLT-4 leukemia
[29] = tested on: NCI-H226 lung
[30] = tested on: NCI-H23 lung
[31] = tested on: NCI-H460 lung
[32] = tested on: NCI-H522 lung
[33] = tested on: OVCAR-3 ovarian
[34] = tested on: OVCAR-4 ovarian
[35] = tested on: OVCAR-5 ovarian
[36] = tested on: OVCAR-8 ovarian
[37] = tested on: PC-3 prostate
[38] = tested on: RPMI-8226 leukemia
[39] = tested on: RXF 393 renal
[40] = tested on: SF-268 CNS
[41] = tested on: SF-295 CNS
[42] = tested on: SF-539 CNS
[43] = tested on: SK-MEL-2 melanoma
[44] = tested on: SK-MEL-28 melanoma
[45] = tested on: SK-MEL-5 melanoma
[46] = tested on: SK-OV-3 ovarian
[47] = tested on: SN12C renal
[48] = tested on: SNB-19 CNS
[49] = tested on: SNB-75 CNS
[50] = tested on: SR leukemia
[51] = tested on: SW-620 colon
[52] = tested on: T-47D breast
[53] = tested on: TK-10 renal
[54] = tested on: U251 CNS
[55] = tested on: UACC-257 melanoma
[56] = tested on: UACC-62 melanoma
[57] = tested on: UO-31 renal

Question: Which GI50 [1] does the source give for CSc1ccccc1NC(=O)c1ccc2nn(/C(C#N)=C/c3ccccn3)nc2c1 here?
Answer: 3.68 µM

Question: And the TGI [1]?
Answer: 12.4 µM

Question: And the GI50 [2]?
Answer: 16 µM

Question: What about the TGI [2] of the same molecule?
Answer: 29.7 µM

Question: And the GI50 [3]?
Answer: 12.2 µM

Question: What about the TGI [3] of the same molecule?
Answer: 28.5 µM

Question: What about the GI50 [4] of the same molecule?
Answer: 2.1 µM

Question: And the TGI [4]?
Answer: 4.42 µM

Question: And the GI50 [5]?
Answer: 6.17 µM

Question: And the TGI [5]?
Answer: 18.7 µM

Question: What about the GI50 [6] of the same molecule?
Answer: 2.78 µM

Question: And the TGI [6]?
Answer: 10.8 µM

Question: What about the GI50 [7] of the same molecule?
Answer: 3.13 µM

Question: What about the TGI [7] of the same molecule?
Answer: 30.7 µM

Question: And the GI50 [8]?
Answer: 1.96 µM

Question: And the TGI [8]?
Answer: 4.25 µM

Question: And the GI50 [9]?
Answer: 4.38 µM

Question: And the TGI [9]?
Answer: 15 µM

Question: And the GI50 [10]?
Answer: 9.18 µM

Question: What about the TGI [10] of the same molecule?
Answer: 21.6 µM

Question: And the GI50 [11]?
Answer: 4.08 µM

Question: What about the TGI [11] of the same molecule?
Answer: 14.6 µM

Question: And the GI50 [12]?
Answer: 2.14 µM

Question: And the TGI [12]?
Answer: 4.72 µM

Question: And the GI50 [13]?
Answer: 1.73 µM

Question: What about the TGI [13] of the same molecule?
Answer: 3.53 µM

Question: What about the GI50 [14] of the same molecule?
Answer: 2.07 µM

Question: What about the TGI [14] of the same molecule?
Answer: 6.58 µM

Question: What about the GI50 [15] of the same molecule?
Answer: 13.1 µM

Question: What about the TGI [15] of the same molecule?
Answer: 27.2 µM

Question: And the GI50 [16]?
Answer: 6.41 µM

Question: What about the TGI [16] of the same molecule?
Answer: 23.9 µM

Question: And the GI50 [17]?
Answer: 3.19 µM

Question: What about the TGI [17] of the same molecule?
Answer: 14.3 µM

Question: And the GI50 [18]?
Answer: 3.09 µM

Question: And the TGI [18]?
Answer: 10.1 µM

Question: And the GI50 [19]?
Answer: 4.52 µM

Question: And the TGI [19]?
Answer: 15.9 µM

Question: And the GI50 [20]?
Answer: 7.64 µM

Question: And the TGI [20]?
Answer: 24.2 µM

Question: And the GI50 [21]?
Answer: 1.72 µM

Question: What about the TGI [21] of the same molecule?
Answer: 3.28 µM

Question: And the GI50 [22]?
Answer: 2.96 µM

Question: What about the TGI [22] of the same molecule?
Answer: 10.4 µM

Question: And the GI50 [23]?
Answer: 2 µM

Question: And the TGI [23]?
Answer: 4.25 µM

Question: And the GI50 [24]?
Answer: 3 µM

Question: And the TGI [24]?
Answer: 13.1 µM

Question: What about the GI50 [25] of the same molecule?
Answer: 2.91 µM

Question: What about the TGI [25] of the same molecule?
Answer: 8.48 µM

Question: And the GI50 [26]?
Answer: 2.67 µM

Question: And the TGI [26]?
Answer: 9.09 µM

Question: And the GI50 [27]?
Answer: 1.84 µM

Question: And the TGI [27]?
Answer: 4.2 µM

Question: And the GI50 [28]?
Answer: 2.68 µM

Question: What about the TGI [28] of the same molecule?
Answer: 7.74 µM

Question: And the GI50 [29]?
Answer: 13.5 µM

Question: And the TGI [29]?
Answer: 28.5 µM

Question: What about the GI50 [30] of the same molecule?
Answer: 5.13 µM

Question: What about the TGI [30] of the same molecule?
Answer: 18.2 µM

Question: And the GI50 [31]?
Answer: 3.16 µM

Question: What about the TGI [31] of the same molecule?
Answer: 11.6 µM

Question: What about the GI50 [32] of the same molecule?
Answer: 1.65 µM

Question: What about the TGI [32] of the same molecule?
Answer: 3.43 µM

Question: And the GI50 [33]?
Answer: 2.29 µM

Question: What about the TGI [33] of the same molecule?
Answer: 5.95 µM

Question: And the GI50 [34]?
Answer: 6.5 µM

Question: And the TGI [34]?
Answer: 19.5 µM

Question: What about the GI50 [35] of the same molecule?
Answer: 4.69 µM

Question: What about the TGI [35] of the same molecule?
Answer: 17.5 µM

Question: What about the GI50 [36] of the same molecule?
Answer: 3.14 µM

Question: What about the TGI [36] of the same molecule?
Answer: 11.7 µM

Question: And the GI50 [37]?
Answer: 7.04 µM

Question: And the TGI [37]?
Answer: 23.7 µM

Question: And the GI50 [38]?
Answer: 2.63 µM

Question: What about the TGI [38] of the same molecule?
Answer: 8.32 µM

Question: And the GI50 [39]?
Answer: 1.78 µM

Question: What about the TGI [39] of the same molecule?
Answer: 4.16 µM

Question: What about the GI50 [40] of the same molecule?
Answer: 10.3 µM

Question: And the TGI [40]?
Answer: 28.1 µM

Question: And the GI50 [41]?
Answer: 13.8 µM

Question: And the TGI [41]?
Answer: 27.3 µM

Question: And the GI50 [42]?
Answer: 2.8 µM

Question: What about the TGI [42] of the same molecule?
Answer: 8.64 µM

Question: What about the GI50 [43] of the same molecule?
Answer: 6.47 µM

Question: And the TGI [43]?
Answer: 20 µM

Question: And the GI50 [44]?
Answer: 2.06 µM

Question: And the TGI [44]?
Answer: 4.57 µM

Question: What about the GI50 [45] of the same molecule?
Answer: 4.99 µM

Question: And the TGI [45]?
Answer: 17.2 µM

Question: What about the GI50 [46] of the same molecule?
Answer: 16 µM

Question: And the TGI [46]?
Answer: 30.1 µM

Question: What about the GI50 [47] of the same molecule?
Answer: 4.53 µM

Question: What about the TGI [47] of the same molecule?
Answer: 16.1 µM

Question: And the GI50 [48]?
Answer: 12.8 µM

Question: And the TGI [48]?
Answer: 26.5 µM

Question: What about the GI50 [49] of the same molecule?
Answer: 5.8 µM

Question: What about the TGI [49] of the same molecule?
Answer: 20.6 µM

Question: And the GI50 [50]?
Answer: 2.35 µM

Question: And the TGI [50]?
Answer: 7.96 µM

Question: What about the GI50 [51] of the same molecule?
Answer: 2.29 µM

Question: What about the TGI [51] of the same molecule?
Answer: 5.39 µM

Question: And the GI50 [52]?
Answer: 3.5 µM

Question: And the TGI [52]?
Answer: 16.6 µM

Question: And the GI50 [53]?
Answer: 4.26 µM

Question: What about the TGI [53] of the same molecule?
Answer: 15.9 µM

Question: What about the GI50 [54] of the same molecule?
Answer: 4.35 µM

Question: What about the TGI [54] of the same molecule?
Answer: 15.7 µM

Question: And the GI50 [55]?
Answer: 2.57 µM

Question: What about the TGI [55] of the same molecule?
Answer: 7.49 µM

Question: And the GI50 [56]?
Answer: 3.77 µM

Question: What about the TGI [56] of the same molecule?
Answer: 14.6 µM

Question: And the GI50 [57]?
Answer: 2.01 µM

Question: What about the TGI [57] of the same molecule?
Answer: 4.74 µM
